Data on 15 molecules can be found in patent publication US10208089B2, “Modulation of complement activity” (priority 2014, dated 2019).

Starred links: 1 amine or outer side, 2 acyl side, 3 side chain; linkers in the order of their positions; H or OH if unused. Positions of bridges follow the written chain, without caps; N, C: chain ends. Non-standard residues stand in square brackets, D forms with d. Residues, ends and D or L forms follow the SMILES beside them. Ala(1H-tetrazol-5-yl) = N[C@@H](Cc1nnn[nH]1)C(=O)O; Trp(7-aza) = N[C@@H](Cc1c[nH]c2ncccc12)C(=O)O; mXylylene = c1cc(C[*:1])cc(C[*:2])c1; Phg = N[C@H](C(=O)O)c1ccccc1; Tle = CC(C)(C)[C@H](N)C(=O)O; NMeS = CN[C@@H](CO)C(=O)O; Nle = CCCC[C@H](N)C(=O)O; Nva = CCC[C@H](N)C(=O)O

The target in the experiment is C5 (Homo sapiens, UniProt P01031). Briefly: Human hemolysis assay (RBC lysis assay using complete human sera). It counts as cell-based. More on the design: with complete human sera (Complement Technology, Tyler Tex.) and polypeptides; tissue Complement Technology, Tyler Tex; host or cells: complete human serum. Conditions: for ability to inhibit red blood cell lysis compared with the parent polypeptide (in words): variants of R3021, R3002 or R3008.
Chain of C5 (P01031 19-1676): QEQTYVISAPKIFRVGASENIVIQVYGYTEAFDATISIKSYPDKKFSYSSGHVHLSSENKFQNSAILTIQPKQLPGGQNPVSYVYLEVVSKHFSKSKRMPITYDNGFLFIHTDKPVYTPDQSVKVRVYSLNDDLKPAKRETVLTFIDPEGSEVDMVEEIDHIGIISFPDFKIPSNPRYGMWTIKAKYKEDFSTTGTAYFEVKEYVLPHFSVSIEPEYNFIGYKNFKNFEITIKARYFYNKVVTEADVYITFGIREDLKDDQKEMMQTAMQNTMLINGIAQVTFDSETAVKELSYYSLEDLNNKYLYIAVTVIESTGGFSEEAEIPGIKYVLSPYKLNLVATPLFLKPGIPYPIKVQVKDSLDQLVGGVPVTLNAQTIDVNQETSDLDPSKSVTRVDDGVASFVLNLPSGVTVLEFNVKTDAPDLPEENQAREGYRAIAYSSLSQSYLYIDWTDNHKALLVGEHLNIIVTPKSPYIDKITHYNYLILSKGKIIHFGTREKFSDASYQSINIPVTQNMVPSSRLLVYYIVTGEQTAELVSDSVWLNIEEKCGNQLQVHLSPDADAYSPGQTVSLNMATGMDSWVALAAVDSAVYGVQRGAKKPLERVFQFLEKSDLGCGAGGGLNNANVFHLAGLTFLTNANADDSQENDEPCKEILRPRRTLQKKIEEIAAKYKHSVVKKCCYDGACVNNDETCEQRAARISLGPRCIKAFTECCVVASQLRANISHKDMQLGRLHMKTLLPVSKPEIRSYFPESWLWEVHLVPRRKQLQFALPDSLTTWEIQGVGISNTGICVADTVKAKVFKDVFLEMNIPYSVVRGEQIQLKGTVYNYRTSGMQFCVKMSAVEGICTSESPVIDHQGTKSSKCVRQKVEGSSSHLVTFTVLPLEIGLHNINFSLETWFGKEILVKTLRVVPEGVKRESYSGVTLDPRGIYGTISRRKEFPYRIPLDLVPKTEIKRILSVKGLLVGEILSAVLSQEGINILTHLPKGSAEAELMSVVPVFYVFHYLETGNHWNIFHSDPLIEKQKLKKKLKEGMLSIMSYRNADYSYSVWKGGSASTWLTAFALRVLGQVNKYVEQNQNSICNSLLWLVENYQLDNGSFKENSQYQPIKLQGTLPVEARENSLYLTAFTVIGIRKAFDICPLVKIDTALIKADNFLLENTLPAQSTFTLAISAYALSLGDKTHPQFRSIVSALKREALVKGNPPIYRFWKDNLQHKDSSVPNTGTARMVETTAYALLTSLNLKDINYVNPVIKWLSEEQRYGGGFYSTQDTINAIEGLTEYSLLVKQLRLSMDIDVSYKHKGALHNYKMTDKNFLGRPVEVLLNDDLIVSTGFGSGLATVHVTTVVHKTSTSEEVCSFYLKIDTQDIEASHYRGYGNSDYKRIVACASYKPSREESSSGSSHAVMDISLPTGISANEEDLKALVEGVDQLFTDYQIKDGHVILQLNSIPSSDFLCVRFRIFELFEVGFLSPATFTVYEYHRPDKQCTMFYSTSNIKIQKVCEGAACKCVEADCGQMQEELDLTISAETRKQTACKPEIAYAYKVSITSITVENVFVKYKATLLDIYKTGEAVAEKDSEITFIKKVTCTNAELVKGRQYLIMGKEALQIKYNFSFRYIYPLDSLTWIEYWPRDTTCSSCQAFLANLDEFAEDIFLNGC

The mark [1] stands for this setting: inhibition of lysis of antibody-sensitized sheep erythrocytes, complete human sera.
Setting [2] is: 7-azatryptophan variant polypeptides of R3002, inhibition of red blood cell lysis.
Setting [3] is: variants of R3021 with internal amino acid deletions, inhibition of red blood cell lysis.
[4] abbreviates: 7-azatryptophan variant polypeptides of R3008, inhibition of red blood cell lysis.

As to `CCC[C@H](NC(=O)[C@@H](NC(=O)[C@@H]1CCCN1C(=O)[C@H](Cc1ccc(O)cc1)NC(=O)[C@H](CCC(=O)O)NC(=O)[C@H](Cc1cn(C)c2ccccc12)NC(=O)[C@H](Cc1ccc(O)cc1)NC(=O)[C@@H](NC(=O)[C@H](CC(N)=O)NC(=O)[C@H](CCC(=O)O)NC(=O)[C@H](Cc1ccc(O)cc1)NC(C)=O)C(C)(C)C)c1ccccc1)C(N)=O` [Compound R3110, Ac-Y-E-N-Tbg-Y-(1-Me)W-E-Y-P-Phg-Nvl-NH2], the IC50 – broadly, the concentration needed to halve the response being measured – under setting [1] was 2.94 µM.

Take `CCC[C@H](NC(=O)[C@@H]1CSCc2cccc(c2)CSC[C@H](NC(=O)[C@@H](NC(=O)[C@@H](NC(=O)[C@H](CCC)NC(C)=O)[C@@H](C)O)c2ccccc2)C(=O)N[C@@H](Cc2c[nH]c3ncccc23)C(=O)N[C@@H](CCC(=O)O)C(=O)N[C@@H](Cc2ccc(O)cc2)C(=O)N(C)[C@@H](CO)C(=O)N[C@@H](C)C(=O)N1)C(N)=O` [Compound R3111, [mXylyl(4,10)]Ac-Nvl-T-Phg-C-azaTrp-E-Y-(N-Me)S-A-C-Nvl-NH2] (Ac-[Nva]T[Phg]C[Trp(7-aza)]EY[NMeS]AC[Nva]-NH2; linker 4-10 via mXylylene): under setting [1], the IC50 was greater than 5 µM.

`CCCC[C@H](NC(C)=O)C(=O)N[C@H]1CSCc2cccc(c2)CSC[C@@H](C(=O)N[C@@H](CCC)C(N)=O)NC(=O)[C@H](Cc2c[nH]cn2)NC(=O)[C@H](CO)N(C)C(=O)[C@H](Cc2ccc(O)cc2)NC(=O)[C@H](CCC(=O)O)NC(=O)[C@H](Cc2c[nH]c3ncccc23)NC(=O)[C@H]([C@@H](C)O)NC(=O)[C@H](c2ccccc2)NC1=O` [Compound R3112, [mXyly1(2,10)]Ac-Nle-C-Phg-T-azaTrp-E-Y-(N-Me)S-H-C-Nvl-NH2] (Ac-[Nle]C[Phg]T[Trp(7-aza)]EY[NMeS]HC[Nva]-NH2; linker 2-10 via mXylylene): the IC50 under setting [1] was greater than 5 µM.

With `CCC[C@H](NC(=O)[C@@H]1CSCc2cccc(c2)CSC[C@H](NC(=O)[C@H](CCC)NC(=O)[C@H](Cc2ccc(O)cc2)NC(C)=O)C(=O)N[C@@H](c2ccccc2)C(=O)N[C@@H]([C@@H](C)O)C(=O)N[C@@H](Cc2c[nH]c3ncccc23)C(=O)N[C@@H](CCC(=O)O)C(=O)N[C@@H](Cc2ccc(O)cc2)C(=O)N(C)[C@@H](CO)C(=O)N[C@@H](Cc2c[nH]cn2)C(=O)N1)C(N)=O` [Compound R3113, [mXylyl(3,11)]Ac-Y-Nvl-C-Phg-T-azaTrp-E-Y-(N-Me)S-H-C-Nvl-NH2] (Ac-Y[Nva]C[Phg]T[Trp(7-aza)]EY[NMeS]HC[Nva]-NH2; linker 3-11 via mXylylene), the IC50 under setting [1] was greater than 5 µM.

For the molecule `CCC[C@H](NC(=O)[C@@H](NC(=O)[C@@H]1CCCN1C(=O)[C@H](Cc1ccc(O)cc1)NC(=O)[C@H](CCC(=O)O)NC(=O)[C@@H](Cc1c[nH]c2ccccc12)NC(=O)[C@H](Cc1ccc(O)cc1)NC(=O)[C@@H](NC(=O)[C@H](CC(N)=O)NC(=O)[C@H](CCC(=O)O)NC(=O)[C@H](Cc1ccc(O)cc1)NC(C)=O)C(C)(C)C)c1ccccc1)C(N)=O` [Compound R3118, Ac-Y-E-N-Tbg-Y-(D-Trp)-E-Y-P-Phg-Nvl-NH2], the IC50 reads like this: under setting [2], greater than 100 µM; under setting [1], greater than 100 µM.

Regarding `CCC[C@H](NC(=O)[C@@H](NC(=O)[C@@H]1CCCN1C(=O)[C@H](Cc1ccc(O)cc1)NC(=O)[C@H](CCC(=O)O)NC(=O)[C@@H](Cc1c[nH]c2ccccc12)NC(=O)[C@H](Cc1ccc(O)cc1)NC(=O)[C@H](CC(N)=O)NC(=O)[C@H](CCC(=O)O)NC(=O)[C@H](Cc1ccc(O)cc1)NC(C)=O)c1ccccc1)C(N)=O` [Compound R3119, Ac-Y-E-N-Y-(D-Trp)-E-Y-P-Phg-Nvl-NH2] (Ac-YENY[dW]EYP[Phg][Nva]-NH2), the IC50 is, setting by setting: under setting [2], greater than 100 µM; under setting [1], greater than 100 µM.

Regarding `CC(=O)N[C@H]1CSCc2cccc(c2)CSC[C@@H](C(=O)N[C@H](C(=O)N[C@@H](Cc2ccc(O)cc2)C(=O)N[C@@H](Cc2c[nH]c3ccccc23)C(=O)N[C@@H](CCC(=O)O)C(=O)N[C@@H](Cc2ccccc2)C(N)=O)C(C)C)NC(=O)[C@H](Cc2ccccc2)NC(=O)[C@H](CCCNC(=N)N)NC(=O)[C@H](CCC(=O)O)NC(=O)[C@H](C(C)C)NC1=O` [Compound R3124, [mXylyl(1,6)]Ac-C-V-E-R-F-C-V-Y-W-E-F-NH2] (Ac-CVERFCVYWEF-NH2; linker 1-6 via mXylylene), the “ability to inhibit red blood cell lysis compared with the parent polypeptide (in words)” value is “decrease in the ability”. Also, the concentration for half-maximal inhibition (IC50) under setting [1] is greater than 100 µM. The IC50 under setting [3] was greater than 100 µM.

As for `CC(=O)N[C@H]1CSCc2cccc(c2)CSC[C@@H](C(=O)N[C@@H](Cc2c[nH]c3ccccc23)C(=O)N[C@@H](CCC(=O)O)C(=O)N[C@@H](Cc2ccccc2)C(N)=O)NC(=O)[C@H](Cc2ccccc2)NC(=O)[C@H](CCCNC(=N)N)NC(=O)[C@H](CCC(=O)O)NC(=O)[C@H](C(C)C)NC1=O` [Compound R3125, [mXylyl(1,6)]Ac-C-V-E-R-F-C-W-E-F-NH2] (Ac-CVERFCWEF-NH2; linker 1-6 via mXylylene), the “ability to inhibit red blood cell lysis compared with the parent polypeptide (in words)” value is recorded as “decrease in the ability”. Moreover, under setting [1], the IC50 is greater than 100 µM. The molecule further displayed an IC50 under setting [3] greater than 100 µM.

With `CCC[C@H](NC(C)=O)C(=O)N[C@@H](CS)C(=O)N[C@@H](Cc1ccc(O)cc1)C(=O)N[C@@H](CC(N)=O)C(=O)N[C@@H](CC(N)=O)C(=O)N[C@H](C(=O)N[C@@H](CCC(=O)O)C(=O)N[C@@H](Cc1c[nH]c2ncccc12)C(=O)N[C@@H](CCC(=O)O)C(=O)N[C@@H](CS)C(=O)N1CCC[C@H]1C(=O)N[C@H](C(=O)N[C@H](C(N)=O)C(C)(C)C)c1ccccc1)C(C)(C)C` [Compound R3126, Ac-Nvl-C-Y-N-N-Tbg-E-azaTrp-E-C-P-Phg-Tbg-NH2] (Ac-[Nva]CYNN[Tle]E[Trp(7-aza)]ECP[Phg][Tle]-NH2), the IC50 under setting [1] was greater than 3 µM.

Turning to `CCC[C@H](NC(C)=O)C(=O)N[C@H]1CSCc2cccc(c2)CSC[C@@H](C(=O)N2CCC[C@H]2C(=O)N[C@H](C(=O)N[C@H](C(N)=O)C(C)(C)C)c2ccccc2)NC(=O)[C@H](CCC(=O)O)NC(=O)[C@H](Cc2c[nH]c3ncccc23)NC(=O)[C@H](CCC(=O)O)NC(=O)[C@H](C(C)(C)C)NC(=O)[C@H](CC(N)=O)NC(=O)[C@H](CC(N)=O)NC(=O)[C@H](Cc2ccc(O)cc2)NC1=O` [Compound R3127, [mXylyl(2,10)]Ac-Nvl-C-Y-N-N-Tbg-E-azaTrp-E-C-P-Pha-Tbg-NH2] (Ac-[Nva]CYNN[Tle]E[Trp(7-aza)]ECP[Phg][Tle]-NH2; linker 2-10 via mXylylene), the IC50 under setting [1] was greater than 75 µM.

On to `CCC[C@H](NC(C)=O)C(=O)N[C@@H](CS)C(=O)N[C@@H](Cc1ccc(O)cc1)C(=O)N[C@@H](CC(N)=O)C(=O)N[C@@H](CC(N)=O)C(=O)N[C@H](C(=O)N[C@@H](CCC(=O)O)C(=O)N[C@@H](CS)C(=O)N[C@@H](CCC(=O)O)C(=O)N[C@@H](Cc1ccc(O)cc1)C(=O)N1CCC[C@H]1C(=O)N[C@H](C(=O)N[C@H](C(N)=O)C(C)(C)C)c1ccccc1)C(C)(C)C` [Compound R3128, Ac-Nvl-C-Y-N-N-Tbg-E-C-E-Y-P-Phg-Tbg-NH2] (Ac-[Nva]CYNN[Tle]ECEYP[Phg][Tle]-NH2), for which the half-inhibitory concentration (IC50) reads like this: under setting [2], greater than 100 µM; under setting [1], greater than 100 µM.

`CCC[C@H](NC(C)=O)C(=O)N[C@H]1CSCc2cccc(c2)CSC[C@@H](C(=O)N[C@@H](CCC(=O)O)C(=O)N[C@@H](Cc2ccc(O)cc2)C(=O)N2CCC[C@H]2C(=O)N[C@H](C(=O)N[C@H](C(N)=O)C(C)(C)C)c2ccccc2)NC(=O)[C@H](CCC(=O)O)NC(=O)[C@H](C(C)(C)C)NC(=O)[C@H](CC(N)=O)NC(=O)[C@H](CC(N)=O)NC(=O)[C@H](Cc2ccc(O)cc2)NC1=O` [Compound R3129, [mXylyl(2,8)]Ac-Nvl-C-Y-N-N-Tbg-E-C-E-Y-P-Phg-Tbg-NH2] (Ac-[Nva]CYNN[Tle]ECEYP[Phg][Tle]-NH2; linker 2-8 via mXylylene): the IC50 runs as follows: under setting [2], greater than 100 µM; under setting [1], greater than 100 µM.

In the case of `CCC[C@H](NC(=O)[C@@H]1CSCc2cccc(c2)CSC[C@H](NC(=O)[C@H](CCC)NC(C)=O)C(=O)N[C@@H](c2ccccc2)C(=O)N[C@@H]([C@@H](C)O)C(=O)N[C@@H](Cc2c[nH]c3ccccc23)C(=O)N[C@@H](Cc2nnn[nH]2)C(=O)N[C@@H](Cc2ccc(O)cc2)C(=O)N(C)[C@@H](CO)C(=O)N[C@@H](Cc2c[nH]cn2)C(=O)N1)C(N)=O` [Compound R3131, [mXylyl(2,10)]Ac-Nvl-C-Phg-T-W-Asp(T)-Y-(N-Me)S-H-C-Nvl-NH2] (Ac-[Nva]C[Phg]TW[Ala(1H-tetrazol-5-yl)]Y[NMeS]HC[Nva]-NH2; linker 2-10 via mXylylene), the IC50 under setting [4] was greater than 100 µM and the IC50 under setting [1] was greater than 100 µM.

`CCC[C@H](NC(=O)[C@@H]1CSCc2cccc(c2)CSC[C@H](NC(=O)[C@H](CCC)NC(C)=O)C(=O)N[C@@H](c2ccccc2)C(=O)N[C@@H]([C@@H](C)O)C(=O)N[C@H](Cc2c[nH]c3ccccc23)C(=O)N[C@@H](CCC(=O)O)C(=O)N[C@@H](Cc2ccc(O)cc2)C(=O)N(C)[C@@H](CO)C(=O)N[C@@H](Cc2c[nH]cn2)C(=O)N1)C(N)=O` [Compound R3132, [mXylyl(2,10)]Ac-Nvl-C-Phg-T-(D-Trp)-E-Y-(N-Me)S-H-C-Nvl-NH2] (Ac-[Nva]C[Phg]T[dW]EY[NMeS]HC[Nva]-NH2; linker 2-10 via mXylylene): the IC50 is greater than 100 µM under setting [4] and greater than 100 µM under setting [1].

Consider `CCC[C@H](NC(=O)[C@@H]1CSCc2cccc(c2)CSC[C@H](NC(=O)[C@H](CCC)NC(C)=O)C(=O)N[C@@H](c2ccccc2)C(=O)N[C@H](C)C(=O)N[C@@H](Cc2c[nH]c3ncccc23)C(=O)N[C@@H](CCC(=O)O)C(=O)N[C@@H](Cc2ccc(O)cc2)C(=O)N(C)[C@@H](CO)C(=O)N[C@@H](Cc2c[nH]cn2)C(=O)N1)C(N)=O` [Compound R3133, [mXylyl(2,10)]Ac-Nvl-C-Phg-(D-Ala)-azaTrp-E-Y-(N-Me)S-H-C-Nvl-NH2] (Ac-[Nva]C[Phg][dA][Trp(7-aza)]EY[NMeS]HC[Nva]-NH2; linker 2-10 via mXylylene), for which the half-maximal inhibitory concentration (IC50) under setting [1] is greater than 75 µM.
